Measured values taken from US5677297A, “Benzazepine-, benzoxazepine- and benzothiazepine-n-acetic acid derivatives, process for their preparation and pharmaceutical compositions containing them” (Solvay Pharmaceuticals GmbH, priority 1995, dated 1997).
pIC50: −log10 of the molar value.

Target: T1, endothelin-converting enzyme (ECE) (Homo sapiens, UniProt P42892)
T1 construct: expressed in transfected cells; host or cells: CHO cells (Chinese hamster ovary), membrane fraction
T1 sequence (P42892 1-770): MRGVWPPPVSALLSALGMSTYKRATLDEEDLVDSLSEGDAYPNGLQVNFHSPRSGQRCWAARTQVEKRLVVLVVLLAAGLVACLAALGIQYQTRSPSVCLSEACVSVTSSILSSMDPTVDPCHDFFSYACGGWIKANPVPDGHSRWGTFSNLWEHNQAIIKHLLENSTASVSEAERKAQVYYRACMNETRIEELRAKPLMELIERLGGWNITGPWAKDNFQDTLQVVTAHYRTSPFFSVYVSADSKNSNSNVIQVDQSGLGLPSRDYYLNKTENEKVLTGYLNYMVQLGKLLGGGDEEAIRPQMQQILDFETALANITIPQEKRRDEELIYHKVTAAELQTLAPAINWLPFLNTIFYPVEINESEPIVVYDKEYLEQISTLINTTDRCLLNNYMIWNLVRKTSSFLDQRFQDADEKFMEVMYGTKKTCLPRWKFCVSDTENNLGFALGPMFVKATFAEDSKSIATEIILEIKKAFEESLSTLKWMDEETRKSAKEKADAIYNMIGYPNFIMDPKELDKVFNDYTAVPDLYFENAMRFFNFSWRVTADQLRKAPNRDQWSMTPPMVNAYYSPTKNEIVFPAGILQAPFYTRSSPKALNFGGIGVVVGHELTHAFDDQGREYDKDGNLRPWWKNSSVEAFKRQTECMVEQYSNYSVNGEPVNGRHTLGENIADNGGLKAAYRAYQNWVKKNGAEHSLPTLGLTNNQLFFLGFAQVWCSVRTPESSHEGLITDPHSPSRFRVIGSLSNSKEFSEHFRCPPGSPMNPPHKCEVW
Assay: In vitro investigation of the ECE-inhibitory effect (recombinant human ECE in CHO cell membrane fraction)
Format: biochemical
Conditions: 24 μM synthetic peptide substrate, pH 7.0, 37° C., 60 min
Description: 3. In vitro investigations of the ECE-inhibitory effect of the substances.
The IC50 of the substances was determined as a measure of their inhibitory activity. The IC50 of a test substance with enzyme-inhibiting activity is the concentration of the test substance at which 50% of the enzymatic activity of ECE is inhibited.
Preparation of the ECE-containing endothelial cell membrane fraction.
Egg cells from the Chinese hamster (Chinese hamster ovary cells, hereinafter CHO cells) in which there was recombinant expression of human ECE [see Schmidt et al., Federation of European Biochemical Societies Letters 356 238-43 (1994)] were lysed, and the cell membranes were removed by centrifugation at 10,000×g for 10 min. The cell membranes were washed by resuspension and repeated centrifugation three times. The ECE-containing cell membrane fraction was resuspended in 100 mM tris/HCl buffer (tris(hydroxymethyl)aminomethane/HCl, pH 7.0, containing 250 mM NaCl) and stored frozen at -70° C. before the enzyme test.
To carry out the test, respective 100 μl samples of various incubation solutions each containing 5 μg protein from an ECE-containing preparation of endothelial cell membranes and different amounts of test substance and 24 μM substrate (synthetic peptide: H2 N-Asp-Ile-Ala-Trp-Phe-Asn-Thr-Pro-Glu-His-Val-Val-Pro-Tyr-Gly-Leu-Gly-COOH) (SEQ ID NO:1) and 100 mM tris buffer (tris(hydroxymethyl)aminomethane/HCl, pH 7.0, containing 250 mM sodium chloride) were prepared. […]
The incubation solutions were preincubated at 37° C. for 15 min before the substrate was added. […] The hydrolysis products H2N-Asp-Ile-Ala-Trp-COOH (SEQ ID NO:2) and H2 N-Phe-Asn-Thr-Pro-Glu-His-Val-Val-Pro-Tyr-Gly-Leu-Gly-COOH (SEQ ID NO:3) formed from the substrate by the enzymatic reaction were determined with the aid of high-pressure liquid chromatography (HPLC). […] The IC50 was calculated for each test substance in a known manner from the concentrations of hydrolysis products measured in the various samples.

## O=C(O)CN1C(=O)[C@@H](NC(=O)C2(C[C@@H](CCc3ccccc3)C(=O)O)CCCC2)CCc2ccccc21 [Example 8, (3S,2'R)-3-[1-(2'-Carboxy-4'-phenylbutyl)cyclopentane-1-carbonylamino]-2,3,4,5-tetrahydro-2-oxo-1H-1-benzazepine-1-acetic acid]
  pIC50: 5.89
